According to the supplement of paper PMC10307832:

Experiments:
Test in all cases: relative viability (nuclei count vs DMSO), 5 days (fraction); higher = more cells survive
Kobe2602 + OSI-027 = compound: C1=CC(=CC=C1NC(=S)NNC2=C(C=C(C=C2[N+](=O)[O-])C(F)(F)F)[N+](=O)[O-])F [Kobe2602] + COc1cccc2cc(-c3nc([C@H]4CC[C@H](C(=O)O)CC4)n4ncnc(N)c34)[nH]c12 [OSI-027] (partner 0.5 µM)
Summary of the method: (§1)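 Lung cancer cell lines were seeded in 1536-well plates and dosed by pin tool the next day, with either a single drug or a fixed anchor-drug dose combined with five library-drug doses (not always all listed) spaced in √10 steps. Five days later, one step fixed the cells and stained their nuclei (final 0.05% Triton X-100, 1% formaldehyde, 1 ug/ml Hoechst), and nuclei were counted on 4× images. Relative viability is the nuclei count in treated wells divided by the count in vehicle wells, and each value is the median of duplicate plates.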

Kobe2602 + Dasatinib = compound: C1=CC(=CC=C1NC(=S)NNC2=C(C=C(C=C2[N+](=O)[O-])C(F)(F)F)[N+](=O)[O-])F [Kobe2602] + Cc1nc(Nc2ncc(C(=O)Nc3c(C)cccc3Cl)s2)cc(N2CCN(CCO)CC2)n1 [Dasatinib] (partner 0.075 µM)
Summary of the method: as §1

[1] = compound: COc1cc2nccc(Oc3ccc(NC(=O)C4(C(=O)Nc5ccc(F)cc5)CC4)cc3)c2cc1OC [Cabozantinib] + CC(=O)Nc1cccc(-n2c(=O)n(C3CC3)c(=O)c3c(Nc4ccc(I)cc4F)n(C)c(=O)c(C)c32)c1 [Trametinib] (partner 0.02 µM)
Summary of the method: as §1

[2] = compound: COc1cc2nccc(Oc3ccc(NC(=O)C4(C(=O)Nc5ccc(F)cc5)CC4)cc3)c2cc1OC [Cabozantinib] + N=C(N)NC(=N)NCCc1ccccc1 [Phenformin] (partner 250 µM)
Summary of the method: as §1

| Cell Line | relative viability (Kobe2602 + OSI-027; first compound 0.2 µM) | relative viability (Kobe2602 + OSI-027; first compound 0.6325 µM) | relative viability (Kobe2602 + OSI-027; first compound 2 µM) | relative viability (Kobe2602 + OSI-027; first compound 6.325 µM) | relative viability (Kobe2602 + OSI-027; first compound 20 µM) | relative viability (Kobe2602 + Dasatinib; first compound 0.2 µM) | relative viability (Kobe2602 + Dasatinib; first compound 0.6325 µM) | relative viability (Kobe2602 + Dasatinib; first compound 2 µM) | relative viability (Kobe2602 + Dasatinib; first compound 6.325 µM) | relative viability (Kobe2602 + Dasatinib; first compound 20 µM) | relative viability ([1]; first compound 0.02 µM) | relative viability ([1]; first compound 0.06325 µM) | relative viability ([1]; first compound 0.6325 µM) | relative viability ([1]; first compound 2 µM) | relative viability ([2]; first compound 0.02 µM) | relative viability ([2]; first compound 0.06325 µM) | relative viability ([2]; first compound 0.6325 µM) | relative viability ([2]; first compound 2 µM) | relative viability ([2]; first compound 0.2 µM) | relative viability ([1]; first compound 0.2 µM) |
| --- | --- | --- | --- | --- | --- | --- | --- | --- | --- | --- | --- | --- | --- | --- | --- | --- | --- | --- | --- | --- |
| PC-3 [JPC-3] | 0.715 | 0.736 | 0.74 | 0.784 | 0.759 | 1.01 | 0.949 | 0.996 | 0.944 | 0.99 | 0.696 | 0.755 | 0.736 | 0.739 | 0.491 | 0.505 | 0.457 | 0.462 | – | – |
| HARA | 0.59 | 0.547 | 0.407 | 0.542 | 0.524 | 0.258 | 0.311 | 0.321 | 0.252 | 0.286 | 0.749 | 0.772 | 0.883 | 0.633 | 0.417 | 0.508 | 0.408 | 0.411 | 0.443 | – |
| NCI-H2347 | 0.425 | 0.495 | 0.403 | 0.278 | 0.571 | 0.377 | 0.282 | 0.315 | 0.364 | 0.414 | 0.252 | 0.296 | 0.249 | 0.268 | 0.449 | 0.604 | – | 0.318 | 0.596 | 0.269 |
| LOU-NH91 | 0.739 | 0.786 | 0.69 | 0.754 | 0.71 | 0.506 | 0.596 | 0.476 | 0.535 | 0.617 | 0.778 | 0.866 | 0.785 | 0.748 | 0.602 | 0.931 | 0.792 | 0.731 | – | 0.692 |
| LC-2-ad | 0.775 | 0.823 | 0.824 | 0.865 | 1.02 | 0.562 | 0.642 | 0.454 | 0.636 | 0.686 | 0.924 | 0.948 | 0.761 | 0.48 | – | 0.68 | 0.604 | 0.546 | 0.574 | 0.92 |
| LCLC-97TM1 | 0.475 | 0.488 | 0.551 | 0.556 | 0.584 | 0.886 | 0.759 | 0.705 | 0.937 | 0.802 | 0.197 | 0.236 | 0.212 | 0.19 | 0.229 | 0.461 | 0.431 | 0.45 | 0.5 | 0.214 |
| EKVX | 0.684 | 0.68 | 0.707 | 0.659 | 0.695 | 0.6 | 0.578 | 0.513 | 0.474 | 0.454 | 0.377 | 0.406 | 0.409 | 0.351 | 0.239 | 0.253 | 0.222 | 0.23 | 0.223 | 0.249 |
| NCI-H441 | 0.616 | 0.563 | 0.536 | 0.631 | 0.783 | 0.66 | 0.606 | 0.71 | 0.699 | 0.621 | 0.339 | 0.502 | 0.441 | 0.361 | 0.556 | 0.775 | 0.883 | 0.902 | 1.02 | 0.421 |
| HCC-827 | 0.787 | 0.743 | 0.755 | 0.762 | 0.718 | 0.289 | 0.284 | 0.43 | 0.388 | 0.404 | 0.529 | 0.586 | 0.504 | 0.476 | 0.425 | 0.441 | 0.417 | 0.381 | – | – |
| NCI-H838 | 0.427 | 0.433 | 0.397 | 0.417 | 0.371 | 0.264 | 0.309 | 0.249 | 0.291 | 0.289 | 0.487 | 0.533 | 0.51 | 0.498 | 0.551 | 0.592 | 0.563 | 0.41 | 0.542 | 0.496 |
| CAL-12T | 0.647 | 0.583 | 0.572 | 0.636 | 0.557 | 0.462 | 0.388 | 0.413 | 0.474 | 0.376 | 0.331 | 0.357 | 0.371 | 0.365 | 0.666 | 0.597 | 0.591 | 0.529 | 0.554 | 0.33 |
| NCI-H2342 | 0.762 | 0.546 | 0.614 | 0.63 | 0.632 | 0.285 | 0.323 | 0.367 | 0.303 | 0.333 | 0.872 | 0.949 | 0.738 | 0.535 | 0.538 | 0.785 | 0.633 | 0.545 | 0.552 | 0.878 |
| SW 900 | 0.712 | 0.477 | 0.499 | 0.374 | 0.488 | 0.463 | 0.836 | 0.586 | 0.537 | 0.898 | 0.978 | 0.841 | 0.955 | 0.852 | 0.692 | 0.668 | 0.552 | 0.408 | 0.662 | 0.611 |
